In patent US7446102B2, “Antibacterial amide macrocycles IV” (priority 2004, dated 2008):
In brackets after ≈: the same amount, converted by molar mass. Counter-ions that a name gives are not always drawn. Like-named read-outs stand apart in the source and are kept apart here.

Legend:
[1] = tested on: S. aureus 133; experiment: Systemic infection with S. aureus 133 (mouse sepsis model); assay type: in vivo; details: female CFW1 mice, i.p. infection, i.v. therapy 30 minutes after the infection, survival over 6 days
[2] = tested on: S. aureus T17; experiment: Determination of the minimum inhibitory concentration (MIC), biphenomycin-resistant S. aureus T17; assay type: cell-based; details: Staphylococcus aureus, biphenomycin-resistant strain, no visible bacterial growth, 18-24 h, 37° C., read-out: MIC S. aureus T17
Experimental: (§1) Determination of the Minimum Inhibitory Concentration (MIC)
(§2) The minimum inhibitory concentration (MIC) is the minimum concentration of an antibiotic with which the growth of a test microbe is inhibited over 18-24 h. The inhibitor concentration can in these cases be determined by standard microbiological methods (see, for example, The National Committee for Clinical Laboratory Standards. Methods for dilution antimicrobial susceptibility tests for bacteria that grow aerobically; approved standard-fifth edition. NCCLS document M7-A5 [ISBN 1-56238-394-9]. NCCLS, 940 West Valley Road, Suite 1400, Wayne, Pa. 19087-1898 USA, 2000). The MIC of the compounds of the invention is determined in the liquid dilution test on the 96-well microtitre plate scale. The bacterial microbes are cultivated in a minimal medium (18.5 mM Na2HPO4, 5.7 mM KH2PO4, 9.3 mM NH4Cl, 2.8 mM MgSO4, 17.1 mM NaCl, 0.033 μg/ml thiamine hydrochloride, 1.2 μg/ml nicotinic acid, 0.003 μg/ml biotin, 1% glucose, 25 μg/ml of each proteinogenic amino acid with the exception of phenylalanine; [H.-P. Kroll; unpublished]) with the addition of 0.4% BH broth (test medium). In the case of Enterococcus facium L4001, heat-inactivated fetal calf serum (FCS; GibcoBRL, Germany) is added to the test medium in a final concentration of 10%. Overnight cultures of the test microbes are diluted to an OD578 of 0.001 (to 0.01 in the case of enterococci) in fresh test medium, and incubated 1:1 with dilutions of the test substances (1:2 dilution steps) in test medium (200 μl final volume). The cultures are incubated at 37° C. for 18-24 hours; enterococci in the presence of 5% CO2.
(§3) The lowest substance concentration in each case at which no visible bacterial growth occurred any more is defined as the MIC.
(§4) Alternative Method for Determining the Minimum Inhibitory Concentration (MIC)
(§5) The minimum inhibitory concentration (MIC) is the minimum concentration of an antibiotic with which the growth of a test microbe is inhibited over 18-24 h. The inhibitor concentration can in these cases be determined by standard microbiological methods with modified medium in an agar dilution test (see, for example, The National Committee for Clinical Laboratory Standards. Methods for dilution antimicrobial susceptibility tests for bacteria that grow aerobically; approved standard-fifth edition. NCCLS document M7-A5 [ISBN 1-56238-394-9]. NCCLS, 940 West Valley Road, Suite 1400, Wayne, Pa. 19087-1898 USA, 2000). The bacterial microbes are cultivated on 1.5% agar plates which contain 20% defibrinated horse blood. The test microbes, which are incubated overnight on Columbia blood agar plates (Becton-Dickinson), are diluted in PBS, adjusted to a microbe count of about […] and placed dropwise (1-3 μl) on test plates. The test substances comprise different dilutions of the test substances (1:2 dilution steps). The cultures are incubated at 37° C. in the presence of 5% CO2 for 18-24 hours.
(§6) The lowest substance concentration in each case at which no visible bacterial growth occurred any more is defined as the MIC and is reported in μg/ml.
The S. aureus strain T17 is isolated in vivo. CFW1 mice are infected intraperitoneally with 4×10^7 S. aureus 133 cells per mouse. 0.5 h after the infection, the animals are treated intravenously with 50 mg/kg biphenomycin B. The kidneys are removed from the surviving animals on day 3 after the infection. After homogenization of the organs, the homogenates are plated out as described for RN4220Bi^R on antibiotics-free and antibiotics-containing agar plates and incubated at 37° C. overnight. […] About 20 of these colonies are tested for the biphenomycin B MIC, and a colony with an MIC of >50 μM is selected for further cultivation, and the strain is referred to as T17.

[3] = molecular target: S. aureus 133 translation; experiment: S. aureus in vitro transcription-translation assay (firefly luciferase, S30 extract); assay type: biochemical; details: 50% inhibition of the translation of firefly luciferase
Source text: In Vitro Transcription-Translation with S. aureus Extracts
Construction of an S. aureus Luciferase Reporter Plasmid
For the construction of a reporter plasmid which can be used in an in vitro transcription-translation assay from S. aureus the plasmid pBESTluc (Promega Corporation, USA) is used. The E. coli tac promoter present in this plasmid in front of the firefly luciferase is replaced by the capA1 promoter with appropriate Shine-Dalgarno sequence from S. aureus. The primers CAPFor 5′-[…] […] […]-3′ and CAPRev 5′-[…]-3′ are used for this. The primer CAPFor contains the capA1 promoter, the ribosome binding site and the 5′ region of the luciferase gene. After PCR using pBESTluc as template it is possible to isolate a PCR product which contains the firefly luciferase gene with the fused capA1 promoter. This is, after restriction with ClaI and HindIII, ligated into the vector pBESTluc which has likewise been digested with ClaI and HindIII. The resulting plasmid p1a is able to replicate in E. coli and be used as template in the S. aureus in vitro transcription-translation assay.
Preparation of S30 Extracts from S. aureus
Six liters of BHI medium are inoculated with a 250 ml overnight culture of an S. aureus strain and allowed to grow at 37° C. until the OD600 nm is 2-4. The cells are harvested by centrifugation and washed in 500 ml of cold buffer A (10 mM Tris acetate, pH 8.0, 14 mM magnesium acetate, 1 mM DTT, 1 M KCl). After renewed centrifugation, the cells are washed in 250 ml of cold buffer A with 50 mM KCl, and the resulting pellets are frozen at −20° C. for 60 min. The pellets are thawed on ice in 30 to 60 min and taken up in buffer B (10 mM Tris acetate, pH 8.0, 20 mM magnesium acetate, 1 mM DTT, 50 mM KCl) up to a total volume of 99 ml. 1.5 ml portions of lysostaphin (0.8 mg/ml) in buffer B are introduced into 3 precooled centrifuge cups and each is mixed with 33 ml of the cell suspension. The samples are incubated at 37° C., shaking occasionally, for 45 to 60 min, before 150 μl of a 0.5 M DTT solution are added. The lysed cells are centrifuged at 30 000×g and 4° C. for 30 min. The cell pellet is taken up in buffer B and then centrifuged again under the same conditions, and the collected supernatants are combined. The supernatants are centrifuged again under the same conditions, and 0.25 volumes of buffer C (670 mM Tris acetate, pH 8.0, 20 mM magnesium acetate, 7 mM Na3 phosphoenolpyruvate, 7 mM DTT, 5.5 mM ATP, 70 μM amino acids (complete from Promega), 75 μg of pyruvate kinase (Sigma, Germany))/ml are added to the upper ⅔ of the supernatant. The samples are incubated at 37° C. for 30 min. The supernatants are dialysed against 21 of dialysis buffer (10 mM Tris acetate, pH 8.0, 14 mM magnesium acetate, 1 mM DTT, 60 mM potassium acetate) in a dialysis tube with a 3500 Da cut-off with one buffer change at 4° C. overnight. The dialysate is concentrated to a protein concentration of about 10 mg/ml by covering the dialysis tube with cold PEG 8000 powder (Sigma, Germany) at 4° C. The S30 extracts can be stored in aliquots at −70° C.
Determination of the IC50 in the S. aureus In Vitro Transcription-Translation Assay
Inhibition of protein biosynthesis of the compounds can be shown in an in vitro transcription-translation assay. The assay is based on the cell-free transcription and translation of firefly luciferase using the reporter plasmid p1a as template and cell-free S30 extracts obtained from S. aureus. The activity of the resulting luciferase can be detected by luminescence measurement.
The amount of S30 extract or plasmid p1a respectively to be employed must be tested anew for each preparation in order to ensure an optimal concentration in the assay. 3 μl of the substance to be tested, dissolved in 5% DMSO, are introduced into an MTP. Then 10 μl of a suitably concentrated plasmid solution p1a are added. […]

[4] = tested on: S. aureus 133; experiment: Determination of the minimum inhibitory concentration (MIC), S. aureus 133; assay type: cell-based
Experimental: as §1, §2, §3, §4, §5, §6

[5] = tested on: E. faecium L4001; experiment: Determination of the minimum inhibitory concentration (MIC), E. faecium L4001; assay type: cell-based; details: Enterococcus faecium
Experimental: as §1, §2, §3, §4, §5, §6

[6] = Staphylococcus aureus, 133, read-out: MIC S. aureus 133
[7] = L4001, read-out: MIC E. faecium L4001
[8] = Staphylococcus aureus, 133, no visible bacterial growth, 18-24 h, 37° C., read-out: MIC S. aureus 133
[9] = L4001, no visible bacterial growth, 18-24 h, 37° C., 5% CO2, read-out: MIC E. faecium L4001

Structure (SMILES) | therapeutic effect ED100 [1] [mg/kg] | MIC [2] [µg/mL] | IC50 [3] [nM] | MIC [4, 6] [µg/mL] | MIC [5, 7] [µg/mL] | MIC [4, 8] [µg/mL] | MIC [5, 9] [µg/mL]
NCCC[C@H](NC(=O)[C@@H]1Cc2cc(ccc2O)-c2ccc(O)c(c2)C[C@H](N)C(=O)N[C@@H](CCCN)C(=O)N1)C(=O)NCCN [Example 2, (8S,11S,14S)-14-Amino-N-((1S)-4-amino-1-{[(2-aminoethyl)amino]carbonyl}butyl)-11-(3-aminopropyl)-5,17-dihydroxy-10,13-dioxo-9,12-diazatricyclo[14.3.1.1^2,6]henicosa-1(20),2(21),3,5,16,18-hexaene-8-carboxamide tetra(hydrotrifluoroacetate)] | 1.25 | – | – | – | – | – | –
NCCC[C@@H]1NC(=O)[C@@H](N)Cc2cc(ccc2O)-c2ccc(O)c(c2)C[C@@H](C(=O)N[C@@H](C[C@@H](O)CN)C(=O)NCCN)NC1=O [Example 6, (8S,11S,14S)-14-Amino-N-((1S,3R)-4-amino-1-{[(2-aminoethyl)amino]carbonyl}-3-hydroxybutyl)-11-[3-aminopropyl]-5,17-dihydroxy-10,13-dioxo-9,12-diazatricyclo[14.3.1.1^2,6]henicosa-1(20),2(21),3,5,16,18-hexaene-8-carboxamide tetrahydrochloride] | – | 2 | 100 | 1 | 8 | – | –
NCCC[C@H](NC(=O)[C@@H]1Cc2cc(ccc2O)-c2ccc(O)c(c2)C[C@H](N)C(=O)N[C@@H](CCCN)C(=O)N1)C(=O)NCCC[C@H](N)CC(=O)NCCN [Example 10, (8S,11S,14S)-14-Amino-N-{(1S)-4-amino-1-[({(4R)-4-amino-6-[(2-aminoethyl)amino]-6-oxohexyl}amino)carbonyl]butyl}-1-(3-aminopropyl)-5,17-dihydroxy-10,13-dioxo-9,12-diazatricyclo[14.3.1.1^2,6]henicosa-1(20),2(21),3,5,16,18-hexaene-8-carboxamide pentahydrochloride] | – | 0.5 | 70 | – | – | 0.5 | 8
NCCC[C@H](NC(=O)[C@@H]1Cc2cc(ccc2O)-c2ccc(O)c(c2)C[C@H](N)C(=O)N[C@@H](CCCN)C(=O)N1)C(=O)N[C@@H](CCN)C(=O)NCCN [Example 13, (8S,11S,14S)-14-Amino-N-((1S)-4-amino-1-{[((1S)-3-amino-1-{[(2-aminoethyl)amino]carbonyl}propyl)amino]carbonyl}butyl)-11-(3-aminopropyl)-5,17-dihydroxy-10,13-dioxo-9,12-diazatricyclo[14.3.1.1^2,6]henicosa-1(20),2(21),3,5,16,18-hexaene-8-carboxamide pentahydrochloride] | – | 0.5 | 60 | 0.5 | 16 | – | –
N=C(N)NCCC[C@H](NC(=O)[C@@H]1Cc2cc(ccc2O)-c2ccc(O)c(c2)C[C@H](N)C(=O)N[C@@H](CCCN)C(=O)N1)C(=O)NCCN [Example 14, (8S,11S,14S)-14-Amino-N-((1S)-1-{[(2-aminoethyl)amino]carbonyl}-4-{[amino(imino)methyl]amino}butyl)-11-(3-aminopropyl)-5,17-dihydroxy-10,13-dioxo-9,12-diazatricyclo[14.3.1.1^2,6]henicosa-1(20),2(21),3,5,16,18-hexaene-8-carboxamide pentahydrochloride] | – | 2 | 70 | 1 | 4 | – | –
NCCC[C@H](N)CNC(=O)[C@H](CCCN)NC(=O)[C@@H]1Cc2cc(ccc2O)-c2ccc(O)c(c2)C[C@H](N)C(=O)N[C@@H](CCCN)C(=O)N1 [Example 16, (8S,11S,14S)-14-Amino-N-[(1S)-4-amino-1-({[(2S)-2,5-diaminopentyl]amino}carbonyl)butyl]-11-(3-aminopropyl)-5,17-dihydroxy-10,13-dioxo-9,12-diazatricyclo[14.3.1.1^2,6]henicosa-1(20),2(21),3,5,16,18-hexaene-8-carboxamide tetrahydrochloride] | – | 2 | 100 | 2 | > 32 | – | –
NCCC[C@@H]1NC(=O)[C@@H](N)Cc2cc(ccc2O)-c2ccc(O)c(c2)C[C@@H](C(=O)N[C@H](CO)CNC(=O)[C@@H](N)CCCN)NC1=O [Example 23] | – | 1 (≈ 1.56 µM) | 320 | – | – | 0.5 (≈ 0.778 µM) | 4 (≈ 6.22 µM)
